PMC4463742, “A new family of StART domain proteins at membrane contact sites has a role in ER-PM sterol transport” (eLife, 2015)

Key:
Lam4p [1] = target: T1, Lam4p (Saccharomyces cerevisiae, UniProt P38800); assay: co-purification of […]-labelled cholesterol from HL60 cells (TLC); competition of DHE FRET; assay type: binding
T1 construct: gene LAM4

Ysp2p [2] = target: T2, Ysp2p (Saccharomyces cerevisiae, UniProt Q06681); assay: competition of tryptophan-DHE FRET with purified domain; assay type: binding
T2 construct: gene YSP2; StART-like domains Ysp2S1 (829-1027) and Ysp2S2 (1027-1244), His-tagged, each measured
T2 sequence (Q06681 829-1244): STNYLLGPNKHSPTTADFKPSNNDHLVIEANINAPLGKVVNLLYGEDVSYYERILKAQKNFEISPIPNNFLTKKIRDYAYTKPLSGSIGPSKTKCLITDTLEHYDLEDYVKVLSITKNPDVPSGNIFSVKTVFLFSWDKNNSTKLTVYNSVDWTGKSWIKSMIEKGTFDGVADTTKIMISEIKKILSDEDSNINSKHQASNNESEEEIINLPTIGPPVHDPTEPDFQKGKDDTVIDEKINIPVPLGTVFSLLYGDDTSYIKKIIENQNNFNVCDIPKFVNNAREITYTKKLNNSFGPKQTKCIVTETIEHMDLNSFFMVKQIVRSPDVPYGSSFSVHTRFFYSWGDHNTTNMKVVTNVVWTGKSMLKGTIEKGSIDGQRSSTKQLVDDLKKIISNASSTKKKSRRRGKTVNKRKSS

Lam4p [3] = target: T1, Lam4p; assay: biochemical
Ysp2p [4] = target: T2, Ysp2p; assay: tryptophan-DHE FRET with purified domain; assay type: binding

T1 sequence (P38800 946-1155): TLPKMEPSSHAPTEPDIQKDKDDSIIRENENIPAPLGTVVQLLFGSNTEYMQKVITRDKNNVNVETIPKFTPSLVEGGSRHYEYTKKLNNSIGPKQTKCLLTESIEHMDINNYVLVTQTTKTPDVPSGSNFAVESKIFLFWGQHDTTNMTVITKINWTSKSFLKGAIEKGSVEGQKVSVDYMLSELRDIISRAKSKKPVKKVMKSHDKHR

| Structure (SMILES) | co-purification of 14C-labelled cholesterol from HL60 cells (TLC); competition o (Lam4p [1]) | competition of tryptophan-DHE FRET with purified domain (Ysp2p [2]) | Kd (Lam4p [3]) | tryptophan-DHE FRET with purified domain (Ysp2p [4]) |
| --- | --- | --- | --- | --- |
| CC(C)CCC[C@@H](C)[C@H]1CC[C@H]2[C@@H]3CC=C4C[C@@H](O)CC[C@]4(C)[C@H]3CC[C@]12C [chol, cholesterol] | Lam4S2 extracted cholesterol but no other lipids from labelled HL60 cells | All four purified StART-like domains bound both cholesterol (the predominant sterol in mammals) and ergosterol | – | – |
| CC(C)[C@@H](C)/C=C/[C@@H](C)[C@H]1CC[C@H]2C3=CC=C4C[C@@H](O)CC[C@]4(C)C3=CC[C@]12C [DHE, dehydroergosterol] | – | – | 500 nM | these proteins all produced strong FRET signals with DHE |
| CC(C)[C@@H](C)/C=C/[C@@H](C)[C@H]1CC[C@H]2C3=CC=C4C[C@@H](O)CC[C@]4(C)[C@H]3CC[C@]12C [erg, ergosterol] | – | All four purified StART-like domains bound both cholesterol (the predominant sterol in mammals) and ergosterol | – | – |
